This series deals with MPTP primates. Put plainly: Dyskinesia and locomotor studies in drug-naive MPTP primates incl. L-Dopa and apomorphine challenge. The method, then: Evaluation of dyskinesias was performed in the efficacy studies describe above using a novel method for dyskinesia quantification based on video dyskinesia analysis (VDA) that assesses the whole range of dyskinetic movement continuously during the observed video sequence, using a standardized protocol.
To mimic clinical conditions, these drug-naive animals were further challenged with acute systemic administration of L-Dopa then with a pro-dyskinetic short-acting D1/D2 dopaminergic agonist (apomorphine).
Experimental Design. Neurotoxin MPTP was first administrated to 23 macaques until they developed severe Parkinsonism, these were then divided into experimental groups according to the following experiments: • 1. […] Animals were then challenged with L-Dopa and the number of dyskinesias was assessed with a specific software (The Observer®, Noldus)
Behaviour. All animals were assessed daily for their general clinical condition with special attention paid to the nutritional status. At the same time, the general neurological state of each macaque was assessed both pre- and post-lentiviral injections. To objectively quantify our neurological observations, animals were video-taped for 30 minutes before MPTP lesioning and at regular intervals following viral injections. The videos were then analyzed off-line by an examiner blinded to the experimental conditions. […]

Consider `CN1CCc2cccc3c2[C@H]1Cc1ccc(O)c(O)c1-3` [apomorphine], for which the “dyskinesia induced by the drug in drug naive MPTP animals” value (acute systemic administration, no therapeutic vector) is “induced hyperkinetic behaviour with numerous dyskinetic movements”. Also, the “locomotor activity of MPTP-long term and MPTP-LacZ primates after the drug” value (oral L-Dopa / apomorphine injection, to levels similar to normal primates, p<0.05) is reported as “improved the locomotor activity”.

Source of the values: US20110269826A1, “Method” (priority 2008, published 2011).
